Assay results: PubChem BioAssay AID1259407 (Chemical Carcinogenesis Research Information System (CCRIS), 2018)
Calls of active or inactive are those of the source. The rule behind the calls is not given here.

System: CCRIS mutagenicity, Ames/micronucleus/aberration tests
Assay: CCRIS mutagenicity studies
[1] = Test System: AMES SALMONELLA TYPHIMURIUM, Strain/Indicator: TA100, Metabolic Activation: RAT, LIVER, S-9, AROCLOR 1254, Method: STANDARD PLATE

Measured: mutagenic call

[O-]/[N+](=N\O)c1ccccc1
inactive: Test System: AMES SALMONELLA TYPHIMURIUM, Strain/Indicator: TA98, Metabolic Activation: HAMSTER, LIVER, S-9, AROCLOR 1254, Method: STANDARD PLATE inactive; negative | Test System: AMES SALMONELLA TYPHIMURIUM, Strain/Indicator: TA98, Metabolic Activation: MOUSE, LIVER, S-9, AROCLOR 1254, Method: STANDARD PLATE inactive; negative | Test System: AMES SALMONELLA TYPHIMURIUM, Strain/Indicator: TA98, Metabolic Activation: MOUSE, LIVER, S-9, Method: STANDARD PLATE inactive; negative | Test System: AMES SALMONELLA TYPHIMURIUM, Strain/Indicator: TA98, Metabolic Activation: NONE, Method: STANDARD PLATE inactive; negative | Test System: AMES SALMONELLA TYPHIMURIUM, Strain/Indicator: TA98, Metabolic Activation: RAT, LIVER, S-9, AROCLOR 1254, Method: STANDARD PLATE inactive; negative | Test System: AMES SALMONELLA TYPHIMURIUM, Strain/Indicator: TA98, Metabolic Activation: RAT, LIVER, S-9, Method: STANDARD PLATE inactive; negative | Test System: AMES SALMONELLA TYPHIMURIUM, Strain/Indicator: TA100, Metabolic Activation: HAMSTER, LIVER, S-9, AROCLOR 1254, Method: STANDARD PLATE inactive; negative | Test System: AMES SALMONELLA TYPHIMURIUM, Strain/Indicator: TA100, Metabolic Activation: HAMSTER, LIVER, S-9, Method: STANDARD PLATE inactive; negative | Test System: AMES SALMONELLA TYPHIMURIUM, Strain/Indicator: TA100, Metabolic Activation: MOUSE, LIVER, S-9, AROCLOR 1254, Method: STANDARD PLATE inactive; negative | Test System: AMES SALMONELLA TYPHIMURIUM, Strain/Indicator: TA100, Metabolic Activation: MOUSE, LIVER, S-9, Method: STANDARD PLATE inactive; negative | Test System: AMES SALMONELLA TYPHIMURIUM, Strain/Indicator: TA100, Metabolic Activation: NONE, Method: STANDARD PLATE inactive; negative | [1] inactive; negative | Test System: AMES SALMONELLA TYPHIMURIUM, Strain/Indicator: TA100, Metabolic Activation: RAT, LIVER, S-9, Method: STANDARD PLATE inactive; negative | Test System: AMES SALMONELLA TYPHIMURIUM, Strain/Indicator: TA1535, Metabolic Activation: HAMSTER, LIVER, S-9, AROCLOR 1254, Method: STANDARD PLATE inactive; negative | Test System: AMES SALMONELLA TYPHIMURIUM, Strain/Indicator: TA1535, Metabolic Activation: HAMSTER, LIVER, S-9, Method: STANDARD PLATE inactive; negative | Test System: AMES SALMONELLA TYPHIMURIUM, Strain/Indicator: TA1535, Metabolic Activation: MOUSE, LIVER, S-9, AROCLOR 1254, Method: STANDARD PLATE inactive; negative | Test System: AMES SALMONELLA TYPHIMURIUM, Strain/Indicator: TA1535, Metabolic Activation: MOUSE, LIVER, S-9, Method: STANDARD PLATE inactive; negative | Test System: AMES SALMONELLA TYPHIMURIUM, Strain/Indicator: TA1535, Metabolic Activation: NONE, Method: STANDARD PLATE inactive; negative | Test System: AMES SALMONELLA TYPHIMURIUM, Strain/Indicator: TA1535, Metabolic Activation: RAT, LIVER, S-9, AROCLOR 1254, Method: STANDARD PLATE inactive; negative | Test System: AMES SALMONELLA TYPHIMURIUM, Strain/Indicator: TA1535, Metabolic Activation: RAT, LIVER, S-9, Method: STANDARD PLATE inactive; negative | Test System: AMES SALMONELLA TYPHIMURIUM, Strain/Indicator: TA1537, Metabolic Activation: HAMSTER, LIVER, S-9, AROCLOR 1254, Method: STANDARD PLATE inactive; negative | Test System: AMES SALMONELLA TYPHIMURIUM, Strain/Indicator: TA1537, Metabolic Activation: HAMSTER, LIVER, S-9, Method: STANDARD PLATE inactive; negative | Test System: AMES SALMONELLA TYPHIMURIUM, Strain/Indicator: TA1537, Metabolic Activation: MOUSE, LIVER, S-9, AROCLOR 1254, Method: STANDARD PLATE inactive; negative | Test System: AMES SALMONELLA TYPHIMURIUM, Strain/Indicator: TA1537, Metabolic Activation: MOUSE, LIVER, S-9, Method: STANDARD PLATE inactive; negative | Test System: AMES SALMONELLA TYPHIMURIUM, Strain/Indicator: TA1537, Metabolic Activation: NONE, Method: STANDARD PLATE inactive; negative | Test System: AMES SALMONELLA TYPHIMURIUM, Strain/Indicator: TA1537, Metabolic Activation: RAT, LIVER, S-9, AROCLOR 1254, Method: STANDARD PLATE inactive; negative | Test System: AMES SALMONELLA TYPHIMURIUM, Strain/Indicator: TA1537, Metabolic Activation: RAT, LIVER, S-9, Method: STANDARD PLATE inactive; negative | Test System: AMES SALMONELLA TYPHIMURIUM, Strain/Indicator: TA1538, Metabolic Activation: HAMSTER, LIVER, S-9, AROCLOR 1254, Method: STANDARD PLATE inactive; negative | Test System: AMES SALMONELLA TYPHIMURIUM, Strain/Indicator: TA1538, Metabolic Activation: HAMSTER, LIVER, S-9, Method: STANDARD PLATE inactive; negative | Test System: AMES SALMONELLA TYPHIMURIUM, Strain/Indicator: TA1538, Metabolic Activation: RAT, LIVER, S-9, AROCLOR 1254, Method: STANDARD PLATE inactive; negative | Test System: E. COLI, Strain/Indicator: WP2 UVRA, Metabolic Activation: HAMSTER, LIVER, S-9, Method: STANDARD PLATE inactive; negative | Test System: E. COLI, Strain/Indicator: WP2 UVRA, Metabolic Activation: MOUSE, LIVER, S-9, AROCLOR 1254, Method: STANDARD PLATE inactive; negative | Test System: E. COLI, Strain/Indicator: WP2 UVRA, Metabolic Activation: MOUSE, LIVER, S-9, Method: STANDARD PLATE inactive; negative | Test System: E. COLI, Strain/Indicator: WP2 UVRA, Metabolic Activation: NONE, Method: STANDARD PLATE inactive; negative | Test System: E. COLI, Strain/Indicator: WP2 UVRA, Metabolic Activation: RAT, LIVER, S-9, Method: STANDARD PLATE inactive; negative

NNC(N)=O
inactive: End Point: IN VIVO MICRONUCLEUS, Test System: POLYCHROMATIC ERYTHROCYTES, Species: MOUSE, Strain/Sex: BALB/C/MALE, Route: IP INJECTION inactive; negative | End Point: IN VIVO MICRONUCLEUS, Test System: POLYCHROMATIC ERYTHROCYTES, Species: MOUSE, Strain/Sex: CBA/MALE, Route: IP INJECTION inactive; negative

Clc1ccccc1
inactive: End Point: IN VITRO CHROMOSOMAL ABERRATIONS, Test System: CHO CELLS, Metabolic Activation: NONE inactive; negative | End Point: IN VITRO CHROMOSOMAL ABERRATIONS, Test System: CHO CELLS, Metabolic Activation: RAT, LIVER, S-9, AROCLOR 1254 inactive; negative; previous trial yielded a positive response at 150 ug/ml but no dose-re | Test System: AMES SALMONELLA TYPHIMURIUM, Strain/Indicator: TA98, Metabolic Activation: HAMSTER, LIVER, S-9, AROCLOR 1254, Method: PREINCUBATION inactive; negative | Test System: AMES SALMONELLA TYPHIMURIUM, Strain/Indicator: TA98, Metabolic Activation: NONE, Method: PREINCUBATION inactive; negative | Test System: AMES SALMONELLA TYPHIMURIUM, Strain/Indicator: TA98, Metabolic Activation: RAT, LIVER, S-9, AROCLOR 1254, Method: PREINCUBATION inactive; negative | Test System: AMES SALMONELLA TYPHIMURIUM, Strain/Indicator: TA100, Metabolic Activation: HAMSTER, LIVER, S-9, AROCLOR 1254, Method: PREINCUBATION inactive; negative | Test System: AMES SALMONELLA TYPHIMURIUM, Strain/Indicator: TA100, Metabolic Activation: NONE, Method: PREINCUBATION inactive; negative | Test System: AMES SALMONELLA TYPHIMURIUM, Strain/Indicator: TA100, Metabolic Activation: RAT, LIVER, S-9, AROCLOR 1254, Method: PREINCUBATION inactive; negative | Test System: AMES SALMONELLA TYPHIMURIUM, Strain/Indicator: TA1535, Metabolic Activation: HAMSTER, LIVER, S-9, AROCLOR 1254, Method: PREINCUBATION inactive; negative | Test System: AMES SALMONELLA TYPHIMURIUM, Strain/Indicator: TA1535, Metabolic Activation: NONE, Method: PREINCUBATION inactive; negative | Test System: AMES SALMONELLA TYPHIMURIUM, Strain/Indicator: TA1535, Metabolic Activation: RAT, LIVER, S-9, AROCLOR 1254, Method: PREINCUBATION inactive; negative | Test System: AMES SALMONELLA TYPHIMURIUM, Strain/Indicator: TA1537, Metabolic Activation: HAMSTER, LIVER, S-9, AROCLOR 1254, Method: PREINCUBATION inactive; negative | Test System: AMES SALMONELLA TYPHIMURIUM, Strain/Indicator: TA1537, Metabolic Activation: NONE, Method: PREINCUBATION inactive; negative | Test System: AMES SALMONELLA TYPHIMURIUM, Strain/Indicator: TA1537, Metabolic Activation: RAT, LIVER, S-9, AROCLOR 1254, Method: PREINCUBATION inactive; negative

O[C@@H]1C2=c3c(cc4cccc5ccc(c3c54)[C@H]1O)-c1ccccc12
inactive: [1] inactive; negative
